From US5993846A, “Bioadhesive emulsion preparations for enhanced drug delivery” (Pharmos Corporation, priority 1998, dated 1999)

Tested on: blood clotting
Type: in vivo, Male Sprague Dawley rats
Description: Clotting time of blood droplets obtained by tail […] used to evaluate the systemic effect of LMWH following intracolonic (i.c.) or intravenous (i.v.) treatment of rats. Male Sprague Dawley rats (200-300 g) were used for all of these experiments. Following preliminary studies, experiments were performed between 8:00-13:00 hours in order to reduce diurnal changes in responsiveness to heparins. Rats were anesthetized with 0.3 ml […] (2:1), weighed, and the initial blood clotting time was determined. Each rat was then treated with either Fragmin or control vehicle (i.v. or i.c.). Intravenous treatment was performed by exposing the femoral […] and injecting in the direction of blood flow. Intracolonic treatment was performed by opening the peritoneal cavity at the midline, locating the secum, and injecting into the large intestine, approximately 2 cm from the secum. The time of treatment was considered as T. At the indicated intervals, blood clotting time was determined. The pharmacological activity, denoted PA %, was used to evaluate the relative effect of various routes of administration and dose levels on blood clotting time. PA % was calculated for the individual rats and the values presented are the mean of each group. […] Blood clotting was measured by […] […] The clotting time was measured with a stop watch that was started when the drops were collected.

Substance: Low molecular weight heparin [LMWH]
- dose-response of blood clotting time and maximal effect, ME % (i.v., groups A-C, FIG. 4): approximately linear dose-response
- TMAX of blood clotting time (rat, in vivo): 1.5 h
